From the supplement of paper PMC10307832

Tests used:
Test in all cases: relative viability (nuclei count vs DMSO), 5 days (fraction); higher = more cells survive
[1] = system: HCC-78
How it was run: (§1)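 Dosing by pin tool came one day after lung cancer cell lines were seeded in 1536-well plates, using either one drug or a fixed anchor-drug dose plus five library-drug doses (not always all listed) in √10 steps. After 5 days, nuclei were counted on 4× images. Relative viability is treated-well nuclei count divided by vehicle-well nuclei count, and values are medians of duplicate plates.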

[2] = system: LCLC-97TM1
How it was run: as §1

[3] = system: NCI-H2009
How it was run: as §1

[4] = system: NCI-H1993
How it was run: as §1

[5] = system: A-427
How it was run: as §1

[6] = system: ChaGo-K-1
How it was run: as §1

[7] = system: 201T
How it was run: as §1

[8] = system: SW 1573
How it was run: as §1

[9] = system: COR-L23
How it was run: as §1

[10] = system: NCI-H650
How it was run: as §1

[11] = system: NCI-H460
How it was run: as §1

[12] = system: NCI-H1650
How it was run: as §1

In the case of `O=c1[nH]c2ccccc2n1C1CCN(CCCC(c2ccc(F)cc2)c2ccc(F)cc2)CC1` [Pimozide] + CC(C)C[C@H](NC(=O)[C@H](Cc1ccccc1)NC(=O)c1cnccn1)B(O)O [Bortezomib] (partner 0.002 µM), the relative viability ([1]; first compound 0.08 µM) is reported as 0.408, the relative viability ([1]; first compound 0.253 µM) is reported as 0.417 and the relative viability ([1]; first compound 0.8 µM) is reported as 0.409. For the same molecule, the relative viability ([1]; first compound 2.53 µM) was 0.443, the relative viability ([1]; first compound 8 µM) was 0.336 and the relative viability ([2]; first compound 0.08 µM) was 0.526. It also gave a relative viability ([2]; first compound 0.253 µM) of 0.637, a relative viability ([2]; first compound 0.8 µM) of 0.574 and a relative viability ([2]; first compound 2.53 µM) of 0.353. For the same molecule, the relative viability ([2]; first compound 8 µM) was 0.616, the relative viability ([3]; first compound 0.08 µM) was 0.999 and the relative viability ([3]; first compound 0.253 µM) was 0.999. For the same molecule, the relative viability ([3]; first compound 0.8 µM) was 0.879, the relative viability ([3]; first compound 2.53 µM) was 0.888 and the relative viability ([3]; first compound 8 µM) was 0.769. For the same molecule, the relative viability ([4]; first compound 0.08 µM) was 0.89, the relative viability ([4]; first compound 0.253 µM) was 1.03 and the relative viability ([4]; first compound 0.8 µM) was 0.986. For the same molecule, the relative viability ([4]; first compound 2.53 µM) was 1.07, the relative viability ([4]; first compound 8 µM) was 1.01 and the relative viability ([5]; first compound 0.08 µM) was 0.947. It also gave a relative viability ([5]; first compound 0.253 µM) of 0.965, a relative viability ([5]; first compound 0.8 µM) of 0.965 and a relative viability ([5]; first compound 2.53 µM) of 0.956. For the same molecule, the relative viability ([5]; first compound 8 µM) was 0.903, the relative viability ([6]; first compound 0.08 µM) was 1.01 and the relative viability ([6]; first compound 0.253 µM) was 0.883. It also gave a relative viability ([6]; first compound 0.8 µM) of 0.977, a relative viability ([6]; first compound 2.53 µM) of 1.01 and a relative viability ([6]; first compound 8 µM) of 0.872. It also gave a relative viability ([7]; first compound 0.08 µM) of 1.07, a relative viability ([7]; first compound 0.253 µM) of 1.05 and a relative viability ([7]; first compound 0.8 µM) of 1.02. For the same molecule, the relative viability ([7]; first compound 2.53 µM) was 1.08, the relative viability ([7]; first compound 8 µM) was 1.01 and the relative viability ([8]; first compound 0.08 µM) was 1.09. The relative viability ([8]; first compound 0.253 µM) was 1.02, the relative viability ([8]; first compound 0.8 µM) was 0.898 and the relative viability ([8]; first compound 2.53 µM) was 0.894. The relative viability ([8]; first compound 8 µM) was 0.963, the relative viability ([9]; first compound 0.08 µM) was 0.965 and the relative viability ([9]; first compound 0.253 µM) was 0.945. The relative viability ([9]; first compound 0.8 µM) was 0.956, the relative viability ([9]; first compound 2.53 µM) was 0.967 and the relative viability ([9]; first compound 8 µM) was 0.964. It also gave a relative viability ([10]; first compound 0.08 µM) of 0.797, a relative viability ([10]; first compound 0.253 µM) of 0.787 and a relative viability ([10]; first compound 0.8 µM) of 0.704. The relative viability ([10]; first compound 2.53 µM) was 0.718, the relative viability ([10]; first compound 8 µM) was 0.747 and the relative viability ([11]; first compound 0.08 µM) was 1.09. The relative viability ([11]; first compound 0.253 µM) was 0.933, the relative viability ([11]; first compound 0.8 µM) was 0.992 and the relative viability ([11]; first compound 2.53 µM) was 0.993. The relative viability ([11]; first compound 8 µM) was 1.04, the relative viability ([12]; first compound 0.08 µM) was 0.23 and the relative viability ([12]; first compound 0.253 µM) was 0.204.
